In patent US7709473B2, “Substituted 2H-[1,2,4]triazolo[4,3-a]pyrazines as GSK-3 inhibitors” (Pfizer Inc., priority 2004, dated 2010):

Molecular target: GSK-3 (Homo sapiens, UniProt P49841)
Assay: GSK-3 inhibition, cell-free 33P-ATP peptide substrate SPA assay
Format: biochemical
Conditions: read-out: inhibitory activity against GSK-3, expressed as IC50
Experimental: The specific activities of the compounds of formula (I) in inhibiting GSK-3 can be determined in both cell-free and cell-based assays, both of which have been previously described in the relevant art. See, for example, U.S. Pat. Nos. 6,417,185 and 6,489,344, the disclosures of which are incorporated herein by reference in their entirety.
A cell-free testing assay can be generally carried out by incubating GSK-3 with a peptide substrate, radiolabeled ATP (e.g., for example, γ^33P- or γ^32P-ATP, both of which are available from Amersham; Arlington Heights, Ill.), magnesium ions, and the compound to be assayed. […] The amount of γ^33P or γ^32P remaining in each well after washing is then quantified to determine the amount of radiolabeled phosphate incorporated into the peptide substrate. […]
Another example of a GSK-3 testing assay, similar to the one described hereinabove, is as follows: enzyme activities are assayed as the incorporation of ^33P from the gamma phosphate of ^33P-ATP (Amersham; Arlington Heights, Ill.; catalog #AH-9968) into biotinylated peptide substrate PKTP-KKAKKL. […] The final concentration of ATP is 0.5 μM (final specific radioactivity of 4 μCi/nmol), and the final concentration of substrate is 0.75 μM. […] Radioactivity associated with the beads is then quantified by standard scintillation counting. […]

Chain of GSK-3 (P49841 whole entry): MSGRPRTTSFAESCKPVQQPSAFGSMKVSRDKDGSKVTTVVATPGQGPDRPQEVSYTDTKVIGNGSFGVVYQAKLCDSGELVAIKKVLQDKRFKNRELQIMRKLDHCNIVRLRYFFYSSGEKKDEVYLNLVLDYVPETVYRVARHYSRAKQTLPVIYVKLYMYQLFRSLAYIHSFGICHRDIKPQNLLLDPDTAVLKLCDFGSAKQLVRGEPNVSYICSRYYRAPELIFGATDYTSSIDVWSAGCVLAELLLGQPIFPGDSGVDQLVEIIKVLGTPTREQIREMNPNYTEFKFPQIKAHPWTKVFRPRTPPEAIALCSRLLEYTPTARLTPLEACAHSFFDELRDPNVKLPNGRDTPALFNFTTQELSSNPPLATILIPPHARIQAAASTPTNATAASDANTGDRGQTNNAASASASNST

With `COc1ccc(OCCNc2nc(C(C)(C)C)cn3c(=O)[nH]nc23)cc1` [Example 218, 6-tert-Butyl-8-[2-(4-methoxy-phenoxy)-ethylamino]-2H-[1,2,4]triazolo[4,3-a]pyrazin-3-one] the IC50 was 4.84 nM.
